We go through five compounds from paper PMC9186351, “Discovery of N-quinazolinone-4-hydroxy-2-quinolone-3-carboxamides as DNA gyrase B-targeted antibacterial agents” (Journal of Enzyme Inhibition and Medicinal Chemistry, 2022).

SMILES strings stand for the structures. In brackets after ≈: the same amount, converted by molar mass. Read-outs that look alike come from different tables or passages of the source.

For data set [1], the target named is S. aureus DNA gyrase. To be noted: Figure 1; cited from earlier work.
Data set [2] is described as follows: Cytotoxicity, SRB assay, HUVEC. To be noted: human, HUVEC cells, read-out: CC50 for HUVECs (positive control). In kind it is cell-based, human. As to the method:
(§1) Cytotoxicity in terms of CC50 was determined by the SRB assay according to the protocol described in our previous publication.[16] Briefly, human HUVECs or HepG2 cells were seeded in the wells of 96-well plates at a concentration of 1 × 10^5 cells per well and incubated at 37 °C for 24 h. […] The cells were fixed with 10% trichloroacetic acid (w/v) at 4 °C for 1 h, washed five times with distilled water, and stained with 0.4% SRB solution at room temperature for another 20 min. The cells were then washed five times with 1% acetic acid and air-dried. The protein-bound dye was dissolved in 10 mM Tris-base solution and shaken for 5 min. The optical density (OD) was measured at 540 nm using a microplate reader to estimate the cell viability (%). With the viability values (%) of the cells treated by the compound at different concentrations as input, the CC50 value was determined by the non-linear regression with normalised dose-response fit implemented in GraphPad Prism version 5 software (GraphPad Software Inc., La Jolla, CA). The experiment was performed in duplicate, and paclitaxel was used as the positive drug for this assay.

A short description of data set [3]: Cytotoxicity, SRB assay, HepG2. In kind it is cell-based, human. To be noted: human, HepG2 cells, read-out: CC50 for HepG2 cells (positive control). The method, then:
as §1

The test system of data set [4] is MRSA/VISA strains. In words: MIC by broth microdilution, MRSA and VISA panel. Format: cell-based, S. aureus. To be noted: Staphylococcus aureus, ATCC 33591 / ATCC 43300 / ATCC 700699 / MRSA / VISA, read-out: MICs for MRSA and VISA strains. As to the method: (§2) All of the bacterial strains used in this study were obtained from the Collection Centre of Pathogen Microorganism of Chinese Academy of Medical Sciences (CAMS-CCPM-A) in China. All of the isolates were stored at −80 °C and streaked on tryptic soy agar (TSA) plates to obtain overnight cultures. The MICs of the test compounds were determined by the broth microdilution method in accordance with the Clinical and Laboratory Standards Institute (CLSI) guidelines.[20] Cation-adjusted Mueller-Hinton broth (CAMHB) was used as the growth medium for MIC assays. Briefly, 100 μL of serially diluted compounds (starting concentrations were 64 μg/mL) in CAMH broth were added to the wells of 96-well microtiter plates. Then, 10 µL of 5 × 10^6 CFU/mL bacterial culture was added to each well. […] The MIC was defined as the lowest concentration of a compound that inhibited visual growth of the bacteria. Vancomycin was set as the positive control for this assay.

The subject of data set [5] is vancomycin intermediate resistant S. aureus (VISA). The data set is described as follows: MIC by broth microdilution, VISA strains. In kind it is cell-based. The method, then: as §2
Data set [6] has as its system methicillin-sensitive S. aureus (MSSA). In words: MIC by broth microdilution, MSSA isolates. Format: cell-based. The conditions noted are these: Staphylococcus aureus. The method, then:
as §2

The test system of data set [7] is methicillin-resistant S. aureus (MRSA). The data set is described as follows: MIC by broth microdilution, MRSA strains. In kind it is cell-based. To be noted: Staphylococcus aureus. The method, then:
as §2

Data set [8] in a line: Mouse microsomal stability assay. In kind it is in vitro ADME. To be noted: pH 7.4; mouse liver microsomes, NADPH; read-out: In vitro metabolic stability t1/2 (min) in liver microsomes. The method, then: The mouse liver microsomes were purchased from BioreclamationIVT and stored at −80 °C. The working solutions (0.2 mM) of the control compound, i.e. dextromethorphan, and the test compound dissolved in DMSO were prepared. Terfenadine (5 ng/mL) and tolbutamide (10 ng/mL) dissolved in acetonitrile were used as two quenching solutions. NADPH was dissolved in the phosphate buffer (50 mM K2HPO4, pH 7.4) at 5 mM. The mouse liver microsomes were thawed at 37 °C. The concentration of the stock solution was 20 mg/mL. The working solution (0.629 mg/mL) was prepared by dilution in phosphate buffer.
The working solution of the control/test compound (1.5 µL) was mixed with the liver microsome working solution (238.5 µL) in a 96-well plate and pre-incubated at 37 °C for 5 min. The 5 mM NADPH working solution (60 µL) was added to the solution to initiate the metabolic reaction. At each time point (0, 5, 15, 30, and 60 for the control/test compound), 30 µL of the reaction mixture was sampled and moved to 300 µL of quenching solutions. When the sampling was done, each sample was centrifuged at 4000 rpm at 4 °C for 15 min. The supernatant was analysed with the same HPLC system as the plasma stability assay. The residues (%) of the test/control compound along with the incubation time were calculated based on which the half-life (t1/2) value was determined.

Data set [9] is described as follows: in vitro. In kind it is in vitro ADME, mouse. The conditions noted are these: mouse plasma, 37 °C; read-out: In vitro metabolic stability t1/2 (min) in plasma. As to the method:
The mouse plasma was purchased from Charles River and stored at −20 °C. The stock solution of the test compound dissolved in DMSO (50 mM) was prepared and diluted to obtain a working solution at the concentration of 0.2 mM. The working solution of the control compound, i.e. propantheline, was similarly prepared (0.2 mM). Terfenadine (5 ng/mL) and tolbutamide (10 ng/mL) dissolved in acetonitrile were used as two quenching solutions.
The mouse plasma was pre-warmed at 37 °C for 15 min. The working solution of the test/control compound (2 µL) was then added to the mouse plasma (398 µL) in a 96-well plate. Next, 30 µL of the reaction mixture was sampled and moved to 300 µL of quenching solutions at each time point: 0, 5, 15, 30, 60, and 120 min for the control compound and 0, 15, 30, 60, and 120 min for the test compound. When the sampling was done, each sample was centrifuged at 4000 rpm at 4 °C for 15 min. Then, 100 µL of the supernatant was removed and mixed with 100 µL of distilled water for LC-MS/MS analysis with Shimadzu HPLC system and the AB Sciex API 4000 QTRAP instrument. The remaining compound (%) after incubation in plasma versus the incubation time was plotted. The half-life (t1/2) value of the compound was determined via linear regression from the plot.

For the compound `CCc1[nH]c(C(=O)NC2CCN(c3nnc(C(C)(C)O)s3)CC2OC)nc1Cl` (stereo not drawn) [DS-2969b], the “S. aureus DNA gyrase IC50” value in [1] is 0.14 µg/mL.

Regarding `CC(=O)O[C@H]1C(=O)[C@@]2(C)[C@H]([C@H](OC(=O)c3ccccc3)[C@]3(O)C[C@H](OC(=O)[C@H](O)[C@@H](NC(=O)c4ccccc4)c4ccccc4)C(C)=C1C3(C)C)[C@]1(OC(C)=O)CO[C@@H]1C[C@@H]2O` [Paclitaxel, reference compound], the CC50 at 72 h in data set [2] amounted to 1.7 nM; in [3], 12.7 nM.

On to `CN[C@H](CC(C)C)C(=O)N[C@H]1C(=O)N[C@@H](CC(N)=O)C(=O)N[C@H]2C(=O)N[C@H]3C(=O)N[C@H](C(=O)N[C@H](C(=O)O)c4cc(O)cc(O)c4-c4cc3ccc4O)[C@H](O)c3ccc(c(Cl)c3)Oc3cc2cc(c3O[C@@H]2O[C@H](CO)[C@@H](O)[C@H](O)[C@H]2O[C@H]2C[C@](C)(N)[C@H](O)[C@H](C)O2)Oc2ccc(cc2Cl)[C@H]1O` [Vancomycin, reference compound], for which the MIC was 0.5 to 4 µg/mL (≈ 0.345 to 2.76 µM) in data set [4]; 4 µg/mL (≈ 2.76 µM) in data set [5] (Staphylococcus aureus, ATCC 700699 / VISA); 4 µg/mL (≈ 2.76 µM) in data set [5] (Staphylococcus aureus, VISA); 4.0 µg/mL (≈ 2.76 µM) in data set [5] (VISA HIP 5827); 0.5 to 1 µg/mL (≈ 0.345 to 0.69 µM) in [6] (ATCC 29213 / BAA-1708 / BAA-976 / MSSA, read-out: MIC over the five MSSA isolates, ATCC 29213, 15, 18-3, BAA976, BAA1708, span over isolates); 1 µg/mL (≈ 0.69 µM) in data set [6] (ATCC 29213 / MSSA, MSSA ATCC 29213). Also, the MIC in data set [6] (BAA-976 / MSSA, MSSA BAA976) came to 0.5 µg/mL (≈ 0.345 µM); in data set [6] (BAA-1708 / MSSA, MSSA BAA1708), 1 µg/mL (≈ 0.69 µM); in [6] (MSSA, MSSA 15) it was 1 µg/mL (≈ 0.69 µM); in data set [6] (MSSA, MSSA 18-3), 0.5 µg/mL (≈ 0.345 µM); in data set [7] (ATCC 33591 / MRSA), 2 µg/mL (≈ 1.38 µM); in data set [7] (ATCC 43300 / MRSA), 1 µg/mL (≈ 0.69 µM). The compound also showed an MIC in data set [7] (MRSA) of 0.5 µg/mL (≈ 0.345 µM).

As for `COc1ccc2c(c1)[C@]13CCCC[C@@H]1[C@H](C2)N(C)CC3` [dextromethorphan, reference compound], the half-life at 1 µM in [8] was 16 min.

For the compound `CC(C)[N+](C)(CCOC(=O)C1c2ccccc2Oc2ccccc21)C(C)C` [propantheline, reference compound], in [9], the half-life at 1 µM worked out at 66.3 min.
